{"source": "patent US12268707B2", "about": "“Treatment for coronavirus infection and associated cytokine toxicity” (priority 2020, dated 2025)", "key": {"[1]": {"conditions": "high doses for extended periods; cited from earlier work"}, "SARS-CoV-2": {"system": "SARS-CoV-2", "format": "cell-based"}, "[2]": {"conditions": "fraction of heparin's anticoagulant properties; cited from earlier work"}, "[3]": {"conditions": "administered orally, intravenously or subcutaneously; cited from earlier work"}}, "note": "Where “and” joins values, the source holds several entries; their conditions need not be identical. Identical values can stand only once.", "data": [{"substance": "pentosan polysulfate [PPS]", "values": [{"measurement": "side effects", "setting": "[1]", "value": "only limited side effects"}, {"measurement": "reduction in virus infectivity (TCID50/mL)", "setting": "SARS-CoV-2", "value": "almost four orders of magnitude reduction"}, {"measurement": "virus replication in Calu3 cells", "setting": "SARS-CoV-2", "value": "inhibited much more strongly"}, {"measurement": "anticoagulant properties relative to heparin", "setting": "[2]", "value": "about 1/15 and 1/15"}, {"measurement": "bioavailability", "setting": "[3]", "value": "bioavailable"}]}]}
